Data set [1] has as its target 5-lipoxygenase. Briefly: 5-lipoxygenase inhibition (method of Yoshimoto et al.). It counts as biochemical. To be noted: read-out: 50% inhibitory concentration on 5-lipoxygenase. The source says:
According to the pharmacological experiment conducted by the method of Yoshimoto et al. which is described in Biochem. Biophys. Res. Commum., vol. 107, p.

Data set [2] deals with mice. Briefly: acute toxicity in male mice. It counts as in vivo. To be noted: observed for 5 days. The source says:
The acute toxicity of the compounds of the present invention was studied in 5 male mice weighing 30 to 45 g.

The subject of data set [3] is left ventricular pressure max dP/dt. Description: cardiotonic activity (max dP/dt) in anesthetized dogs. It is filed as in vivo. To be noted: injected into left coronary artery. The method, then: The experiment on cardiotonic activity of the compounds of the present invention was conducted as follows: Dogs were anesthetized with sodium pentobarbital and heparin was administered intraveneously. The left venticular pressure and its max dP/dt were measured. Test compounds were injected at a volume of 10 to 30 μl into a catheter inserted into left coronary artery. The effects of test compounds on max dP/dt were shown as ED30, a dose required to increase max dP/dt by 30% of the effects of 0.1 μg is isoproterenol.

Data set [4] concerns central nervous system. Description: sedative activity by electroencephalograms in rabbits. It is filed as in vivo. To be noted: from the intraperitoneal dose of 3 mg/kg.

With `Cc1[nH]c2ccc(O)cc2c1C(=O)NC1CCN(CCc2ccccc2)CC1` [Example 2, 5-hydroxy-2-methyl-N-[1-(2-phenylethyl)-4-piperidyl]indole-3-carboxamide], the IC50 in data set [1] amounted to 0.44 µM. Moreover, the mortality entry in data set [2] (oral 1000 mg/kg) is on record as “All animals survived”. Turning to `Cc1[nH]c2ccc(O)cc2c1C(=O)NC1CCN(CCCc2ccccc2)CC1` [Example 3, 5-hydroxy-2-methyl-N-[1-(3-phenylpropyl)-4-piperidyl]indole-3-carboxamide], the IC50 in data set [1] amounted to 0.18 µM. The “ED30, dose required to increase max dP/dt by 30% of the effects of 0.1 μg isoproterenol” value in data set [3] came to 50 µg.

Consider `Cc1[nH]c2ccc(O)cc2c1C(=O)NC1CCN(CCCc2ccc(O)cc2)CC1` [Example 35, 5-Hydroxy-2-methyl-N-[1-(3-(p-hydroxyphenyl)propyl)-4-piperidyl]indole-3-carboxamide], for which the “ED30, dose required to increase max dP/dt by 30% of the effects of 0.1 μg isoproterenol” value in data set [3] came out at 36 µg.

In the case of `O=C(NC1CCN(CCc2c[nH]c3ccccc23)CC1)c1ccccc1` [indoramin, 3-[2-(4-benzamido-1-piperidyl)ethyl]indole, reference compound], in data set [4], the “changes on electroencephalograms (sedative activity)” value is “trend toward slow wave”. Also, the mortality result in data set [2] (oral 500 mg/kg) is recorded as “all mice died”. Take `C[C@@H]1O[C@@H](O[C@H]2C[C@@H](O)[C@]3(CO)[C@H]4[C@H](O)C[C@]5(C)[C@@H](C6=CC(=O)OC6)CC[C@]5(O)[C@@H]4CC[C@]3(O)C2)[C@H](O)[C@H](O)[C@H]1O` [ouabain, reference compound]: in data set [3], the “ED30, dose required to increase max dP/dt by 30% of the effects of 0.1 μg isoproterenol” value was found to be 60 µg.

Source of the values: US4581355A, “3-indolecarboxamides for control of circulatory diseases” (Yoshitomi Pharmaceutical Industries, Ltd., priority 1983, dated 1986).
